Results: patent US20230172921A1, “LERIGLITAZONE FOR TREATING LUNG INFLAMMATION AND INTERSTITIAL LUNG DISEASE” (Minoryx Therapeutics S.L., priority 2020, published 2023)
Values joined by “and” are separate entries in the source; they are usually repeats but may differ in a detail not shown here. Identical values can stand only once. Counter-ions that a name gives are not always drawn.

What was measured:
[1] = Unbound fraction in human plasma; assay type: in vitro ADME
[2] = Lung/blood distribution ratio in rat; assay type: in vivo; details: lung and blood
[3] = system: LPS induced acute lung injury (ALI) model; experiment: LPS induced acute lung injury model in mouse; assay type: in vivo; details: for CD45+ % Decrease vs vehicle / CD45+ Mean / IL-6 % Decrease vs vehicle / IL-6 Mean / IL-12p40 % Decrease vs vehicle / IL-12p40 Mean / IP-10 % Decrease vs vehicle / IP-10 Mean / MIG % Decrease vs vehicle / MIG Mean / Neutrophils % Decrease vs vehicle / Neutrophils Mean / RANTES % Decrease vs vehicle / RANTES Mean / T cells % Decrease vs vehicle / T cells Mean / TNF % Decrease vs vehicle / TNF Mean / Total Protein in BALF % Decrease vs vehicle / Total Protein in BALF Mean: BALF Day 3; for decrease in neutrophil recruitment in the alveoli / decrease in neutrophil recruitment in the interstitium / reduction in mononuclear cell infiltration in the perivascular/peribronchiolar space / reduction of septal thickening in the alveoli: lung H&E histopathology score; for decrease in neutrophil recruitment in the alveoli / decrease in neutrophil recruitment in the interstitium / reduction in mononuclear cell infiltration in the perivascular/peribronchiolar space: FIG. 21; for reduction of septal thickening in the alveoli: FIG. 22
Protocol: Table 2 summarizes the groups tested in the LPS induced acute lung injury (ALI) model study in mice. [table] Briefly, C57Bl/6 7-8 week old mice were exposed to lipopolysaccharide (LPS) oral aspiration (5 mg/Kg). The animals were treated orally with either vehicle, M3 (50 mg/Kg, or MIN-102 at different doses 25 and 50 mg/Kg) bid from Day −1 to Day 2, 6-8 h apart and QD on Day 3 1 h before euthanasia. On Day 3 protein content, cytokine assessment and leukocyte count by FACS analysis were performed in the bronchoalveolar lavage fluid (BALF). The results are shown in FIGS. 11-20, and Tables 3 and 4. The lungs were collected, embedded and processed for H&E histology.

[4] = system: Macrophages exposed to SARS-CoV-2; experiment: Cytokine production in macrophages in the presence of SARS-CoV-2 (Luminex); assay type: cell-based; details: macrophages exposed to SARS-CoV-2, supernatant 24 h post-infection
[5] = maximal over doses 25 and 50 mg/kg, BALF

CC(O)c1ccc(CCOc2ccc(CC3SC(=O)NC3=O)cc2)nc1 (racemic) [MIN-102, 5-[[4-[2-[5-(1-hydroxyethyl)pyridin-2-yl]ethoxy]phenyl]methyl]-1,3-thiazolidine-2,4-dione hydrochloride]
Unbound % in Plasma (human) [1]: 3.5% | Kp [2]: 0.83 | CD45+ % Decrease vs vehicle ([3]; 25 mg/kg PO BID): 52.36% | CD45+ Mean ([3]; 25 mg/kg PO BID): 462941 cells/ml BALF | IL-6 % Decrease vs vehicle ([3]; 25 mg/kg PO BID): 76.17% | IL-6 Mean ([3]; 25 mg/kg PO BID): 116.2 pg/mL | IL-12p40 % Decrease vs vehicle ([3]; 25 mg/kg PO BID): 55.14% | IL-12p40 Mean ([3]; 25 mg/kg PO BID): 15.48 pg/mL | IP-10 % Decrease vs vehicle ([3]; 25 mg/kg PO BID): 47.55% | IP-10 Mean ([3]; 25 mg/kg PO BID): 627.6 pg/mL | MIG % Decrease vs vehicle ([3]; 25 mg/kg PO BID): 50.52% | MIG Mean ([3]; 25 mg/kg PO BID): 1369 pg/mL | Neutrophils % Decrease vs vehicle ([3]; 25 mg/kg PO BID): 56.41% | Neutrophils Mean ([3]; 25 mg/kg PO BID): 280504 cells/ml BALF | RANTES % Decrease vs vehicle ([3]; 25 mg/kg PO BID): 61.57% | RANTES Mean ([3]; 25 mg/kg PO BID): 21.68 pg/mL | T cells % Decrease vs vehicle ([3]; 25 mg/kg PO BID): 43.43% | T cells Mean ([3]; 25 mg/kg PO BID): 20898 cells/ml BALF | TNF % Decrease vs vehicle ([3]; 25 mg/kg PO BID): 59.19% | TNF Mean ([3]; 25 mg/kg PO BID): 12.85 pg/mL | Total Protein in BALF % Decrease vs vehicle ([3]; 25 mg/kg PO BID): 46.00% | Total Protein in BALF Mean ([3]; 25 mg/kg PO BID): 245.3 µg/mL | CD45+ % Decrease vs vehicle ([3]; 50 mg/kg PO BID): 49.83% | CD45+ Mean ([3]; 50 mg/kg PO BID): 487506 cells/ml BALF | IL-6 % Decrease vs vehicle ([3]; 50 mg/kg PO BID): 87.13% | IL-6 Mean ([3]; 50 mg/kg PO BID): 62.78 pg/mL | IL-12p40 % Decrease vs vehicle ([3]; 50 mg/kg PO BID): 71.41% | IL-12p40 Mean ([3]; 50 mg/kg PO BID): 9.868 pg/mL | IP-10 % Decrease vs vehicle ([3]; 50 mg/kg PO BID): 55.42% | IP-10 Mean ([3]; 50 mg/kg PO BID): 731.5 pg/mL | MIG % Decrease vs vehicle ([3]; 50 mg/kg PO BID): 73.18% | MIG Mean ([3]; 50 mg/kg PO BID): 741.7 pg/mL | Neutrophils % Decrease vs vehicle ([3]; 50 mg/kg PO BID): 57.85% | Neutrophils Mean ([3]; 50 mg/kg PO BID): 271223 cells/ml BALF | RANTES % Decrease vs vehicle ([3]; 50 mg/kg PO BID): 79.24% | RANTES Mean ([3]; 50 mg/kg PO BID): 11.71 pg/mL | T cells % Decrease vs vehicle ([3]; 50 mg/kg PO BID): 42.49% | T cells Mean ([3]; 50 mg/kg PO BID): 21245 cells/ml BALF | TNF % Decrease vs vehicle ([3]; 50 mg/kg PO BID): 68.26% | TNF Mean ([3]; 50 mg/kg PO BID): 10 pg/mL | Total Protein in BALF % Decrease vs vehicle ([3]; 50 mg/kg PO BID): 49.50% | Total Protein in BALF Mean ([3]; 50 mg/kg PO BID): 229.4 µg/mL | decrease of total number of leukocytes (CD45 positive cells) vs vehicle group ([3]; in all doses (25 and 50 mg/kg), BALF): 50% | decrease in neutrophil recruitment in the alveoli [3]: 53% | decrease in neutrophil recruitment in the interstitium [3]: 48% | reduction in mononuclear cell infiltration in the perivascular/peribronchiolar space [3]: 31% | reduction of septal thickening in the alveoli [3]: 43% | T cells, maximal reduction vs vehicle group [3, 5]: around 47% | neutrophils, maximal reduction vs vehicle group [3, 5]: around 58% | effect on IL2 secretion [4]: No effect | effect on IL7 secretion [4]: No effect | reduction of MIP1-α secretion [4]: 90%

CC(=O)c1ccc(CCOc2ccc(CC3SC(=O)NC3=O)cc2)nc1 (stereo not shown) [Compound M3, 5-[[4-[2-[5-Acetylpyridin-2-yl]ethoxy]phenyl]methyl]-1,3-thiazolidine-2,4-dione]
CD45+ % Decrease vs vehicle ([3]; 50 mg/kg PO BID): 67% and 67.35% | CD45+ Mean ([3]; 50 mg/kg PO BID): 317269 cells/ml BALF | IL-6 % Decrease vs vehicle ([3]; 50 mg/kg PO BID): 96.86% | IL-6 Mean ([3]; 50 mg/kg PO BID): 15.29 pg/mL | IL-12p40 % Decrease vs vehicle ([3]; 50 mg/kg PO BID): 86.71% | IL-12p40 Mean ([3]; 50 mg/kg PO BID): 4.586 pg/mL | IP-10 % Decrease vs vehicle ([3]; 50 mg/kg PO BID): 79.17% | IP-10 Mean ([3]; 50 mg/kg PO BID): 1045 pg/mL | MIG % Decrease vs vehicle ([3]; 50 mg/kg PO BID): 90.75% | MIG Mean ([3]; 50 mg/kg PO BID): 256.2 pg/mL | Neutrophils % Decrease vs vehicle ([3]; 50 mg/kg PO BID): 72% and 72.06% | Neutrophils Mean ([3]; 50 mg/kg PO BID): 179793 cells/ml BALF | RANTES % Decrease vs vehicle ([3]; 50 mg/kg PO BID): 93.19% | RANTES Mean ([3]; 50 mg/kg PO BID): 3.838 pg/mL | T cells % Decrease vs vehicle ([3]; 50 mg/kg PO BID): 74% and 74.14% | T cells Mean ([3]; 50 mg/kg PO BID): 9554 cells/ml BALF | TNF % Decrease vs vehicle ([3]; 50 mg/kg PO BID): 68.26% | TNF Mean ([3]; 50 mg/kg PO BID): 10 pg/mL | Total Protein in BALF % Decrease vs vehicle ([3]; 50 mg/kg PO BID): 63% and 63.24% | Total Protein in BALF Mean ([3]; 50 mg/kg PO BID): 167 µg/mL | reduction of B cells ([3]; 50 mg/kg, BALF): 52% | decrease in neutrophil recruitment in the alveoli [3]: 64% | decrease in neutrophil recruitment in the interstitium [3]: 62% | reduction in mononuclear cell infiltration in the perivascular/peribronchiolar space [3]: 40% | reduction of septal thickening in the alveoli [3]: 79%

CCc1ccc(CCOc2ccc(CC3SC(=O)NC3=O)cc2)nc1 (stereo not shown) [Pioglitazone, reference compound]
Unbound % in Plasma (human) [1]: 0.2% | Kp [2]: 0.3
